Reference: ChEMBL document CHEMBL6083203, “Discovery and optimisation of pyrazolo[1,5-a]pyrimidines as aryl hydrocarbon receptor antagonists” (RSC Med Chem, 2024)
pIC50: −log10 of the molar value.

Tests used:
[1] = molecular target: T1, Aryl hydrocarbon receptor (Mus musculus, UniProt P30561); assay: Antagonist activity at AhR receptor in TCDD-stimulated mouse CD34-positive cell assessed as decrease in CYP1B1 mRNA expression
T1 sequence (P30561 whole entry): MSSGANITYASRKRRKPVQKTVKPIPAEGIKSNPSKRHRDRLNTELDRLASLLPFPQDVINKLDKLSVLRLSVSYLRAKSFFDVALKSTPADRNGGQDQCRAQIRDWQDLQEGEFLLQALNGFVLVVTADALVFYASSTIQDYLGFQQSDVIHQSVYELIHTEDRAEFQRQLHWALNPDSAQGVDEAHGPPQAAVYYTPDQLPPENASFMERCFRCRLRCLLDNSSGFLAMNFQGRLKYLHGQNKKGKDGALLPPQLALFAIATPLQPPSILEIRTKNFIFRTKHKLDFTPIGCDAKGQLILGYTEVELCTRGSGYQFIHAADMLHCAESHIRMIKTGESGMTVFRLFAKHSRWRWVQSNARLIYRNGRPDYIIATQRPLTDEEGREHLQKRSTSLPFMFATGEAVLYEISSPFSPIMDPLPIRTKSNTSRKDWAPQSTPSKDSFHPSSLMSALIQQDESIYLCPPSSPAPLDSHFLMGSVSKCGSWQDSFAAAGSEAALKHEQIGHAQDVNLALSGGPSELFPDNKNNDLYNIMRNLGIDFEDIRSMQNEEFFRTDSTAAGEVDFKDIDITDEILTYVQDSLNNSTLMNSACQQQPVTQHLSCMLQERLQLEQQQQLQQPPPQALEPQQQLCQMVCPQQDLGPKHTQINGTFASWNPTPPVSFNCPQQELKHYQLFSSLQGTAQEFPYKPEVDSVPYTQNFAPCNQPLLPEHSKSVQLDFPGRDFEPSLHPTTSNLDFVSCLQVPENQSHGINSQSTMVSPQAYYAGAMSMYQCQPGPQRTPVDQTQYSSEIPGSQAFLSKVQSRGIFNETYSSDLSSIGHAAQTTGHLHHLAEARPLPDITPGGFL

[2] = molecular target: T2, Aryl hydrocarbon receptor (Homo sapiens, UniProt P35869)
T2 sequence (P35869 whole entry): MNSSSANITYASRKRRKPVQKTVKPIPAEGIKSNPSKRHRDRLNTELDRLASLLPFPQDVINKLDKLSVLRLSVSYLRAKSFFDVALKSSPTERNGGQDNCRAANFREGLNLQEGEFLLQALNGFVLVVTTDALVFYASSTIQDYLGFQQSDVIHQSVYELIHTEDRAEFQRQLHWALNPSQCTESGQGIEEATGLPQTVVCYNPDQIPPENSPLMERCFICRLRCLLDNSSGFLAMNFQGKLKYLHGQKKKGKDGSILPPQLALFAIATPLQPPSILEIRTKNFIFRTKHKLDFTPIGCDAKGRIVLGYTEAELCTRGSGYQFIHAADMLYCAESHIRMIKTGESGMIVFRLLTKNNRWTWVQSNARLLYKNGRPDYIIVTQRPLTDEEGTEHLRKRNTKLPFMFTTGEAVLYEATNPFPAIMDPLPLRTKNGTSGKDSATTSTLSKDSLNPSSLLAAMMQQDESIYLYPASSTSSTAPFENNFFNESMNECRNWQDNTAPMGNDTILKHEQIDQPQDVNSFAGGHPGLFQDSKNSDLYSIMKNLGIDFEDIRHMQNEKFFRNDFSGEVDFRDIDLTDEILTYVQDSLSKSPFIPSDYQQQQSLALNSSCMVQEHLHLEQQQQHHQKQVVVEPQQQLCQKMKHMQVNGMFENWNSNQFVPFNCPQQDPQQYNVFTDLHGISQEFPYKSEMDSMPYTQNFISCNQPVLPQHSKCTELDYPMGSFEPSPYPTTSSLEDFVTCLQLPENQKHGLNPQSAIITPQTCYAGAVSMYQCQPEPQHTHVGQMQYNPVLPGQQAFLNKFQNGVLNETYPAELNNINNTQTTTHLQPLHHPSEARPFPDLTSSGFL
Description: Antagonist activity at AHR receptor in human Huh-7 cells transfected with CYP1A1 regulated luciferase reporter gene assessed as inhibition of TCDD-induced receptor activation incubated for 20 hrs by dual luciferase assay

[3] = molecular target: T2, Aryl hydrocarbon receptor; settings: Huh-7, human, 20 h, read-out: Activity
Description: Antagonist activity at AHR receptor in human Huh-7 cells transfected with CYP1A1 regulated luciferase reporter gene assessed as inhibition of TCDD-induced receptor activation at 25 uM incubated for 20 hrs by dual luciferase assay relative to control

[4] = molecular target: T2, Aryl hydrocarbon receptor; settings: Huh-7, human, 20 h, read-out: Activity; remark: listed apart in the source
Description: Antagonist activity at AHR receptor in human Huh-7 cells transfected with CYP1A1 regulated luciferase reporter gene assessed as inhibition of receptor activation at 25 uM incubated for 20 hrs by dual luciferase assay relative to control

Work on `CC(C)n1cnc2c(NCCc3ccc(O)cc3)nc(-c3csc4ccccc34)nc21` yielded a pIC50 [1] of 6.90.

Compound `COC(=O)c1ccccc1-c1cnn2c(NCCOCCO)cc(-c3ccccc3)nc12` has a pIC50 [2] of 6.44.

With `C=CCn1c(SC(C)C(=O)NC(N)=O)nnc1-c1cc2c(s1)CCC(C(C)(C)C)C2` (configuration not stated) the inhibition at 25 µM [3] was 21% and the inhibition at 25 µM [4] was 1.4%.

`Cc1ccc(-c2cc(NCCOCCO)n3ncc(-c4ccccc4)c3n2)cc1` was tested, and the pIC50 [2] was 6.72.

Work on `CC(C)(C)c1cccc(-c2cnn3c(NCCOCCO)cc(-c4ccccc4)nc23)c1` yielded a pIC50 [2] of 4.53.

`OCCOCCNc1cc(-c2ccccc2)nc2c(-c3ccccc3OC(F)(F)F)cnn12` was tested, and the pIC50 [2] was 6.40.

`COc1ccccc1-c1cnn2c(NCCOCCO)cc(-c3ccccc3)nc12` gave a pIC50 [2] of 6.50.

`NC(=O)C1CN(C(=O)c2cc(-c3ccc(Cl)cc3)nn2-c2ccccc2)c2ccccc2O1` (configuration not stated) showed an inhibition at 25 µM [3] of 23.6% and an inhibition at 25 µM [4] of 28%.

For `CS(=O)(=O)Nc1ccccc1-c1cnn2c(NCCOCCO)cc(-c3ccccc3)nc12`, the pIC50 [2] was 6.18.

Work on `c1ccc(-c2cc(Nc3cnc[nH]3)n3ncc(-c4ccccc4)c3n2)cc1` yielded a pIC50 [2] of 6.92.
